# Measurements published in US20250352458A1, “IMPROVEMENTS IN OR RELATING TO EXTRACTS” (Givaudan SA, priority 2020, published 2025).
# Values joined by “and” are separate entries in the source; they are usually repeats but may differ in a detail not shown here. Identical values can stand only once.
# Columns and labels:
# [1] = test system: C. granulosum (ATCC 25564); assay: MIC evaluation, optical density and percentage of inhibition; format: cell-based, Cutibacterium granulosum
# Excerpt: The minimum inhibitory concentration of the following active ingredients has been assessed: • Mangifera indica extract (in propanediol/water 75/25); • Vehicule (propanediol/water 75/25, expressed as Activolo3-75%); • “Pool Mangiferin” which is the pure molecule mangiferin at the same concentration in the Mangifera indica extract in propanediol/water 75/25. • “Pool Mangifera” with is the mix of the 4 molecules (mangiferin, maclurin-C-glucoside, irifluophenone-C-glucoside, gallotanin) at the same concentration in the Mangifera indica extract in propane-diol/water 75/25. […] After two days, the bacterial concentration was adjusted in reinforced clostridial broth to obtain a solution at 1.106 CFU/ml (5.104 CFU/well). […] Concentrations are expressed in % (m/v). […] The diluted bacterial suspension was added to columns 2 to 12. RCB medium was added to column 1 as negative control. Optical density was determined, which correlates to the bacterial growth.
# P. acnes (ATCC 6919) = assay: TKC (Time Kill Curve) determination; format: cell-based, Propionibacterium acnes
# Method: Each strain was plated on appropriate plate and grown in the appropriate conditions. Colonies were resuspended in 5 mL of PBS to obtain a 0.5 McFarland O D (approximately 1.10^8 cfu/ml).After two days, the bacterial concentrations we readjusted in reinforced clostridial broth to obtain a solution at 1.10^6 CFU/ml (5.10^4 CFU/well). […] Bacteria quantification has been repeated at […]. For bacteria quantification a Colony counter IUL instruments, flash and go model was used. A Time Kill Curve (TKC) was performed to determine the effect of the active versus placebo on the growth of Propionibacterium acnes.
# [2] = test system: H. influenzae (ATCC 49766); assay: MIC evaluation, optical density and percentage of inhibition; format: cell-based, Haemophilus influenza
# Excerpt: The minimum inhibitory concentration of the following active ingredients has been assessed: • Mangifera indica extract (in propanediol/water 75/25); • Vehicule (propanediol/water 75/25, expressed as Activolo3-75%); • “Pool Mangiferin” which is the pure molecule mangiferin at the same concentration in the Mangifera indica extract in propanediol/water 75/25. • “Pool Mangifera” with is the mix of the 4 molecules (mangiferin, maclurin-C-glucoside, irifluophenone-C-glucoside, gallotanin) at the same concentration in the Mangifera indica extract in propane-diol/water 75/25.
# H. influenzae (ATCC 49766) was cultured in Mueller Hinton broth as recommended by ATCC with 5% CO2. The Bacterial concentration was adjusted in Mueller Hinton broth to obtain a solution at 1.106 CFU/ml (5.104 CFU/well) (launch of culture at D-2). […] Two day later, the inhibition of H. influenzae was evaluated using Colony counter IUL instruments, flash and go model (reading at D2).
# Concentrations are expressed in % (m/v).
# The diluted bacterial suspension was added to columns 2 to 12. RCB medium was added to column 1 as negative control.
# Optical density was determined, which correlates to the bacterial growth. Thereafter, an inhibition value (%) was determined for each condition using the following formula: […]
# The percentage of inhibition must be higher or equal than 90% to reach the MIC.
# [3] = 0.39 10^−2 % (m/v), plate col. 12
# [4] = 0.78 10^−2 % (m/v), plate col. 11
# [5] = 1.56 10^−2 % (m/v), plate col. 10
# [6] = 3.1310^−2 % (m/v), plate col. 9
# [7] = 6.25 10^−2 % (m/v), plate col. 8
# [8] = 12.5 10^−2 % (m/v), plate col. 7
# [9] = 25.0 10^−2 % (m/v), plate col. 6
structure (smiles),measurement,setting,value
O=c1c2cc(O)c(O)cc2oc2cc(O)c([C@@H]3O[C@H](CO)[C@@H](O)[C@H](O)[C@H]3O)c(O)c12 [pool mangiferin],"Optical density, C. granulosum",[1]; [3],0.546 and 0.539
same,"Percentage of inhibition, C. granulosum",[1]; [3],0.5% and 1.9%
same,"Optical density, C. granulosum","[1]; 0.5% (m/v), plate col. 5",0.449 and 0.457
same,"Percentage of inhibition, C. granulosum","[1]; 0.5% (m/v), plate col. 5",19.9% and 18.3%
same,"Optical density, C. granulosum",[1]; [4],0.561
same,"Percentage of inhibition, C. granulosum",[1]; [4],0%
same,"Optical density, C. granulosum","[1]; 1% (m/v), plate col. 4",0.417 and 0.419
same,"Percentage of inhibition, C. granulosum","[1]; 1% (m/v), plate col. 4",26.3% and 25.9%
same,"Optical density, C. granulosum",[1]; [5],0.573 and 0.570
same,"Percentage of inhibition, C. granulosum",[1]; [5],0%
same,"Optical density, C. granulosum","[1]; 2% (m/v), plate col. 3",0.391 and 0.398
same,"Percentage of inhibition, C. granulosum","[1]; 2% (m/v), plate col. 3",31.5% and 30.1%
same,"Optical density, C. granulosum",[1]; [6],0.592 and 0.558
same,"Percentage of inhibition, C. granulosum",[1]; [6],0%
same,"Optical density, C. granulosum",[1]; [7],0.545
same,"Percentage of inhibition, C. granulosum",[1]; [7],0.7%
same,"Optical density, C. granulosum",[1]; [8],0.505 and 0.520
same,"Percentage of inhibition, C. granulosum",[1]; [8],8.7% and 5.7%
same,"Optical density, C. granulosum",[1]; [9],0.479 and 0.478
same,"Percentage of inhibition, C. granulosum",[1]; [9],13.9% and 14.1%
same,antibacterial effect against C. granulosum (in words),[1]; at 2%,slight antibacterial effect
same,"Time Kill Curve P. acnes, bacteria quantification","P. acnes (ATCC 6919); 0.5%, T0",6.0 Log10 CFU/ml
same,"Time Kill Curve P. acnes, bacteria quantification","P. acnes (ATCC 6919); 0.5%, T + 4 h",6.2 Log10 CFU/ml
same,"Time Kill Curve P. acnes, bacteria quantification","P. acnes (ATCC 6919); 0.5%, T + 8 h",5.7 Log10 CFU/ml
same,"Time Kill Curve P. acnes, bacteria quantification","P. acnes (ATCC 6919); 0.5%, T + 24 h",6.6 Log10 CFU/ml
same,"Time Kill Curve P. acnes, bacteria quantification","P. acnes (ATCC 6919); 0.5%, T + 32 h",6.7 Log10 CFU/ml
same,"Time Kill Curve P. acnes, bacteria quantification","P. acnes (ATCC 6919); 0.5%, T + 48 h",7.8 Log10 CFU/ml
same,"Time Kill Curve P. acnes, bacteria quantification","P. acnes (ATCC 6919); 1%, T0",6.0 Log10 CFU/ml
same,"Time Kill Curve P. acnes, bacteria quantification","P. acnes (ATCC 6919); 1%, T + 4 h",6.0 Log10 CFU/ml
same,"Time Kill Curve P. acnes, bacteria quantification","P. acnes (ATCC 6919); 1%, T + 8 h",5.8 Log10 CFU/ml
same,"Time Kill Curve P. acnes, bacteria quantification","P. acnes (ATCC 6919); 1%, T + 24 h",6.5 Log10 CFU/ml
same,"Time Kill Curve P. acnes, bacteria quantification","P. acnes (ATCC 6919); 1%, T + 32 h",6.7 Log10 CFU/ml
same,"Time Kill Curve P. acnes, bacteria quantification","P. acnes (ATCC 6919); 1%, T + 48 h",7.8 Log10 CFU/ml
same,"Time Kill Curve P. acnes, bacteria quantification","P. acnes (ATCC 6919); 2%, T0",6.0 Log10 CFU/ml
same,"Time Kill Curve P. acnes, bacteria quantification","P. acnes (ATCC 6919); 2%, T + 4 h",5.7 Log10 CFU/ml
same,"Time Kill Curve P. acnes, bacteria quantification","P. acnes (ATCC 6919); 2%, T + 8 h",5.7 Log10 CFU/ml
same,"Time Kill Curve P. acnes, bacteria quantification","P. acnes (ATCC 6919); 2%, T + 24 h",6.5 Log10 CFU/ml
same,"Time Kill Curve P. acnes, bacteria quantification","P. acnes (ATCC 6919); 2%, T + 32 h",6.7 Log10 CFU/ml
same,"Time Kill Curve P. acnes, bacteria quantification","P. acnes (ATCC 6919); 2%, T + 48 h",7.8 Log10 CFU/ml
same,"Optical density, H. influenza",[2]; [3],0.190 and 0.197
same,"Percentage of inhibition, H. influenza",[2]; [3],1.9% and 0%
same,"Optical density, H. influenza","[2]; 0.5% (m/v), plate col. 5",0.193 and 0.191
same,"Percentage of inhibition, H. influenza","[2]; 0.5% (m/v), plate col. 5",−0.3% and 1.2%
same,"Optical density, H. influenza",[2]; [4],0.188 and 0.197
same,"Percentage of inhibition, H. influenza",[2]; [4],3.4% and 0%
same,"Optical density, H. influenza","[2]; 1% (m/v), plate col. 4",0.190 and 0.183
same,"Percentage of inhibition, H. influenza","[2]; 1% (m/v), plate col. 4",1.9% and 7.0%
same,"Optical density, H. influenza",[2]; [5],0.185 and 0.196
same,"Percentage of inhibition, H. influenza",[2]; [5],5.5% and 0%
same,antibacterial effect against H. influenza (in words),[2]; 2%,no antibacterial effect
same,"Optical density, H. influenza","[2]; 2% (m/v), plate col. 3",0.184 and 0.181
same,"Percentage of inhibition, H. influenza","[2]; 2% (m/v), plate col. 3",6.3% and 8.4%
same,"Optical density, H. influenza",[2]; [6],0.180 and 0.193
same,"Percentage of inhibition, H. influenza",[2]; [6],9.1% and 0%
same,"Optical density, H. influenza",[2]; [7],0.185 and 0.197
same,"Percentage of inhibition, H. influenza",[2]; [7],5.5% and 0%
same,"Optical density, H. influenza",[2]; [8],0.187 and 0.195
same,"Percentage of inhibition, H. influenza",[2]; [8],4.1% and 0%
same,"Optical density, H. influenza",[2]; [9],0.189 and 0.196
same,"Percentage of inhibition, H. influenza",[2]; [9],2.6% and 0%
